Several values for one entry are separate records, joined by “and”; a condition that tells them apart may be missing. Identical values can stand only once. Entries after “also recorded” stand apart in the source; their conditions may differ. Like-named read-outs stand apart in the source and are kept apart here. Starred links: 1 amine or outer side, 2 acyl side, 3 side chain; linkers in the order of their positions; H or OH if unused. Positions of bridges follow the written chain, without caps; N, C: chain ends. Residues, ends and D or L forms follow the SMILES beside them. No end group written: not given here. Cysteamide = C(CS[*:3])N[*:1]
What was measured:
[1] = target: T1, recombinant human thymidylate synthase (hTS) (Homo sapiens, UniProt P04818); assay: hTS inhibition assay (spectrophotometric, absorbance at 340 nm); assay type: biochemical; conditions: for inhibition at 500 µM / % inhibition of hTS: at 500 µM and r.t.
T1 construct: made in house
T1 sequence (P04818 whole entry): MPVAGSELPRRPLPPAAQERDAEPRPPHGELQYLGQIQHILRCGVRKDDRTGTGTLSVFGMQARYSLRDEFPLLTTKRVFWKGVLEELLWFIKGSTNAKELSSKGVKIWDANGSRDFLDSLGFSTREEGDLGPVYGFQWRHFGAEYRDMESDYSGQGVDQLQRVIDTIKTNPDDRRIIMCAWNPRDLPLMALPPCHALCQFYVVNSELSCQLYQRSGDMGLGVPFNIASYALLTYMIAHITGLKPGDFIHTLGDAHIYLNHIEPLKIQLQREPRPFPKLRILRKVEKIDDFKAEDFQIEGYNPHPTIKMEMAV
Experimental: hTS was purified as previously reported. The enzyme solution was thawed the day of the experiment and the enzyme concentration was determined by UV−Vis spectroscopy (Varian Cary 100, Agilent, Santa Clara, CA, USA) using ε280 = 89000 M^−1 cm^−1 and Mr = 74 229. The thawed protein solution was kept constantly at 4 °C. In this condition, the enzyme was able to reproduce normal kinetic activity values (KM dUMP = 10−12 μM, KM mTHF = 4−6 μM, kcat = 0.8−0.9 s^−1). The peptide solution was mixed or vortexed in order to help solubilization; the precise concentration was determined through UV−Vis spectroscopy. A stock solution of mTHF was prepared in carbonate buffer. The stock was prepared in the range of 5 to 6 mM. A stock solution of dUMP was prepared in bidistilled water in the range of 10−12 mM. Peptide inhibitors were tested without incubation with hTS in […], at 25 °C. A 1 mL amount of assay buffer consisted of 50 mM TES, pH 7.4, containing 25 mM MgCl2, 6.5 mM HCHO, 1 mM EDTA, 75 mM β-mercaptoethanol (β-ME), 0.120 mM dUMP, and 0.060 mM mTHF. Following the addition of the enzyme (300 nM) and inhibitor mixture, the absorbance was monitored at 340 nm in a UV−Vis spectrophotometer for 3 min. In the control sample, an equal aliquot of enzyme alone was added. hTS activity inhibition percentages (I%) values were measured at 0.100−3000 µM concentration of inhibitor. […] The kinetic inhibition pattern was studied for compound 7 [12]. The inhibition values are expressed as mean ± SEM; n = 3.

IGROV-1 cells = assay: Cytotoxicity, crystal violet cell growth assay, peptides transfected with SAINT-PhD; assay type: cell-based, human; conditions: at 10 and 25 µM, ranking among the 10 cPs, SAINT-PhD delivery
Experimental: (§1) The IGROV-1, A2780, and A2780/CP human ovarian cancer cell lines were grown as monolayer in RPMI 1640 medium containing 10% heat-inactivated fetal bovine serum and 50 µg/mL gentamycin sulfate (Euroclone, Devon, UK). Cultures were equilibrated with humidified 5% CO2 in air at 37 °C. The cDDP-resistant variant A2780/CP cell line, derived from the parent A2780 cell line, is about 10-fold resistant to cDDP and was developed by monthly exposure to cDDP, followed by chronic exposure to stepwise increases in cDDP concentration. All studies were performed in Mycoplasma negative cells, as routinely determined with the MycoAlert Mycoplasma detection kit (Lonza, Walkersville, MD, USA).
(§2) Treatment with each peptide was performed according to the standard transfection protocol of the SAINT-PhD delivery system (Synvolux Therapeutics, Leiden, Netherlands). Complexes of peptide (µg) with SAINT-PhD (µL) were prepared at appropriate ratios corresponding to the approximate µM concentrations indicated. For each protein sample, complexes were prepared as follows: for the treatment of a 24-well plate, the appropriate amount of each peptide was diluted in HBS, then SAINT-PhD was pipetted into the solution without vortexing; then, the mixture was incubated for 5 min at room temperature, and filled up to 500 µL with serum-free medium. The culture medium was aspirated from the cells, the SAINT-PhD/peptide complex was added to the wells and incubated 4 h (37 °C, 5% CO2). Afterward, complete RPMI was added to reach the appropriate volume for maintaining the cell culture for the duration of the experiments.
(§3) Cell growth was determined using a modified crystal violet assay. On selected days, the tissue culture medium was removed, and the cell monolayer fixed with methanol and stained with 0.2% crystal violet solution in 20% methanol for at least 30 min. After being washed several times with distilled water to remove excess dye, the cells were left to dry. The incorporated dye was solubilized in acidified isopropanol (1N HCl: 2-propanol, 1:10). After appropriate dilution, absorbance was determined spectrophotometrically at 540 nm. The extracted dye was proportional to cell biomass. The percentage of cytotoxicity was calculated by comparing the absorbance of cultures exposed to the drug to unexposed (control) cultures.

[2] = target: T1, recombinant human thymidylate synthase (hTS); assay: hTS inhibition assay (spectrophotometric, absorbance at 340 nm); assay type: biochemical; conditions: for IC50: room temperature (20–22 °C) under stirring, standard error ±20% of the value; for % inhibition of hTS: at 500 µM and 37 °C under stirring
[3] = target: T1, recombinant human thymidylate synthase (hTS); conditions: at 100 µM; ref [20]; cited from earlier work
A2780/CP cells = assay: Cytotoxicity, crystal violet cell growth assay, peptides transfected with SAINT-PhD; assay type: cell-based, human; conditions: SAINT-PhD delivery
Experimental: as §1, §2, §3

A2780 cells = assay: as above; assay type: cell-based, human; conditions: SAINT-PhD delivery
Experimental: as §1, §2, §3

Compound | inhibition at 500 µM [1] | cytotoxicity (in words) (IGROV-1 cells) | IC50 [2] | % inhibition of hTS [1] | % inhibition of hTS [2] | further results
CC(C)C[C@@H]1NC(=O)[C@H](CCC(N)=O)NC(=O)[C@@H]2CCCN2C(=O)[C@H](CO)NC(=O)[C@@H](N)CSSC[C@@H](C(=O)O)NC(=O)[C@H](CCC(N)=O)NC(=O)[C@H](Cc2ccc(O)cc2)NC1=O [Peptide 10] (H-CSPQLYQC-OH; disulfide 1-8) | 50% | intermediate cytotoxicities | 484 µM and 474 µM | – | – | –
CC(C)C[C@@H]1NC(=O)[C@H](CCC(N)=O)NC(=O)[C@@H]2CCCN2C(=O)[C@@H](NC(=O)[C@@H](N)CC(C)C)CSSC[C@@H](C(=O)O)NC(=O)[C@H](CCC(N)=O)NC(=O)[C@H](Cc2ccc(O)cc2)NC1=O [Peptide 8, Leu-c[Cys-Pro-Gln-Leu-Tyr-Gln-Cys]] (H-LCPQLYQC-OH; disulfide 2-8) | 38% | least active | 856 µM | – | – | –
LSPQLYQR [[Pro^3]LR, proline mutant of LR] | – | – | – | – | – | % inhibition of hTS [3]: 25% at 100 µM ^c
CC(C)C[C@@H]1NC(=O)[C@H](CCC(N)=O)NC(=O)[C@H](C)NC(=O)[C@@H](NC(=O)[C@@H](N)CC(C)C)CSSC[C@@H](C(=O)O)NC(=O)[C@H](CCC(N)=O)NC(=O)[C@H](Cc2ccc(O)cc2)NC1=O [Peptide 2, Leu-c[Cys-Ala-Gln-Leu-Tyr-Gln-Cys]] (H-LCAQLYQC-OH; disulfide 2-8) | – | least active | 900 µM | – | – | inhibition at 400 µM ([1]; at 400 µM and r.t. under stirring): 36%
CC(C)C[C@@H]1NC(=O)[C@H](CCC(N)=O)NC(=O)[C@@H]2CCCN2C(=O)[C@@H](NC(=O)[C@@H](N)CC(C)C)CSSC[C@@H](C(=O)N[C@@H](CCC(N)=O)C(=O)N[C@@H](CCCNC(=N)N)C(=O)O)NC1=O [Peptide 6, Leu-c[Cys-Pro-Gln-Leu-Cys]-Gln-Arg] (H-LCPQLCQR-OH; disulfide 2-6) | – | least active; also recorded: almost non-cytotoxic | – | inactive | inactive | cytotoxicity (in words) (A2780/CP cells): almost non-cytotoxic; cytotoxicity (in words) (A2780 cells): almost non-cytotoxic
CC(C)C[C@@H]1NC(=O)[C@H](CCC(N)=O)NC(=O)[C@@H]2CCCN2C(=O)[C@@H](NC(=O)[C@@H](N)CC(C)C)CSSCCNC(=O)[C@H](CCCNC(=N)N)NC(=O)[C@H](CCC(N)=O)NC(=O)[C@H](Cc2ccc(O)cc2)NC1=O [Peptide 9, Leu-c[Cys-Pro-Gln-Leu-Tyr-Gln-Arg-CAM]] (H-LCPQLYQR-Cysteamide; disulfide 2-C) | – | intermediate cytotoxicities | – | inactive; also recorded: N.I. at 500 µM and r.t. N.I. at 500 µM and 37 °C under stirring | inactive; also recorded: N.I. at 500 µM and r.t. N.I. at 500 µM and 37 °C under stirring | –
